This note sets out measurements from ChEMBL document CHEMBL5291721, “A preclinical secondary pharmacology resource illuminates target-adverse drug reaction associations of marketed drugs” (Nat Commun, 2023).

SMILES strings stand for the structures.

Among the targets are D(1A) dopamine receptor (Homo sapiens, UniProt P21728); Vasopressin V2 receptor (Homo sapiens, UniProt P30518); Vasopressin V1a receptor (Homo sapiens, UniProt P37288).
The target of test [1] is T1, Muscarinic acetylcholine receptor M2 (Homo sapiens, UniProt P08172).
T1 sequence (P08172 whole entry): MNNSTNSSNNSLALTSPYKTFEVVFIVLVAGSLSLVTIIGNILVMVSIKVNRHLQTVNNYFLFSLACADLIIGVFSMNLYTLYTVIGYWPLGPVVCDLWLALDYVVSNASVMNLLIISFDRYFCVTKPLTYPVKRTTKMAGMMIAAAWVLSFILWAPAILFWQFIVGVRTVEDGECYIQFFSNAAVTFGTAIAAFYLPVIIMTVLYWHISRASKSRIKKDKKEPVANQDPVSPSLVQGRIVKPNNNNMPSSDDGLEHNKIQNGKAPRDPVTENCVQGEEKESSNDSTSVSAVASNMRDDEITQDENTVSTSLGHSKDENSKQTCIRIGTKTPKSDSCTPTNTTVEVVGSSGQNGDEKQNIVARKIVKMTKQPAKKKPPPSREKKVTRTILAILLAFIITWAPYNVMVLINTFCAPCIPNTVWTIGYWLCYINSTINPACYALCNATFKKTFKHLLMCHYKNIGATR
It is filed as functional, cell-based.

For test [2], the target named is 3',5'-cyclic-AMP phosphodiesterase 4D (Homo sapiens, UniProt Q08499). In kind it is functional.
A further test has as its target T2, Thromboxane A2 receptor (Homo sapiens, UniProt P21731).
T2 sequence (P21731 whole entry): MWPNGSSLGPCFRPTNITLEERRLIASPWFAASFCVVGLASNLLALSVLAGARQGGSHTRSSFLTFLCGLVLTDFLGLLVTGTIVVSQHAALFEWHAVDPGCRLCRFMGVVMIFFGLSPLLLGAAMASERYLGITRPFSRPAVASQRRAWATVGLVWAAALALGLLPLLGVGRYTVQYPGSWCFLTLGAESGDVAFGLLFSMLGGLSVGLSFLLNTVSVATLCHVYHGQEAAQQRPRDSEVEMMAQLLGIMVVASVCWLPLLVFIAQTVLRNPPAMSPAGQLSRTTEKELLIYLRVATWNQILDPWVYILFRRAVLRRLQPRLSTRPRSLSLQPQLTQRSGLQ

For test [3], the target named is T3, Muscarinic acetylcholine receptor M1 (Homo sapiens, UniProt P11229).
T3 sequence (P11229 whole entry): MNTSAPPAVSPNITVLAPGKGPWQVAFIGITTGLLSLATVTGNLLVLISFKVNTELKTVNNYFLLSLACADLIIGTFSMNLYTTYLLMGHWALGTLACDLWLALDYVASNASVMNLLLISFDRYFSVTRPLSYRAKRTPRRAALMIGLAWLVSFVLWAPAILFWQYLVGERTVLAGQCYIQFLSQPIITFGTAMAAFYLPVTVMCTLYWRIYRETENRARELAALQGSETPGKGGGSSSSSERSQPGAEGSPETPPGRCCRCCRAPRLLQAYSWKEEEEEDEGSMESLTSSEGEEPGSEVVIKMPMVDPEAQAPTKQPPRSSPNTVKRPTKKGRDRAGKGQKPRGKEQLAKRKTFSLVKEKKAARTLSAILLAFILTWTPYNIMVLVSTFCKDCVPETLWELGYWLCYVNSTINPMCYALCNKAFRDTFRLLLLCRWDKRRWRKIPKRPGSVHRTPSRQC
In kind it is functional, cell-based.

Test [4] deals with T1, Muscarinic acetylcholine receptor M2. It is filed as functional, cell-based. The source holds these as a separate data set.
Test [5] has as its target Gamma-aminobutyric acid receptor subunit alpha-1 (Rattus norvegicus, UniProt P62813).
For test [6], the target named is 5-hydroxytryptamine receptor 2B (Homo sapiens, UniProt P41595). In kind it is functional, cell-based.
In another test the target is Cannabinoid receptor 1 (Homo sapiens, UniProt P21554). It is filed as functional, cell-based.
The next test concerns the target Histamine H2 receptor (Homo sapiens, UniProt P25021). It is filed as functional, cell-based.
Test [7] deals with Sodium-dependent serotonin transporter (Homo sapiens, UniProt P31645).
The target in a further test is T4, Progesterone receptor (Homo sapiens, UniProt P06401).
T4 sequence (P06401 whole entry): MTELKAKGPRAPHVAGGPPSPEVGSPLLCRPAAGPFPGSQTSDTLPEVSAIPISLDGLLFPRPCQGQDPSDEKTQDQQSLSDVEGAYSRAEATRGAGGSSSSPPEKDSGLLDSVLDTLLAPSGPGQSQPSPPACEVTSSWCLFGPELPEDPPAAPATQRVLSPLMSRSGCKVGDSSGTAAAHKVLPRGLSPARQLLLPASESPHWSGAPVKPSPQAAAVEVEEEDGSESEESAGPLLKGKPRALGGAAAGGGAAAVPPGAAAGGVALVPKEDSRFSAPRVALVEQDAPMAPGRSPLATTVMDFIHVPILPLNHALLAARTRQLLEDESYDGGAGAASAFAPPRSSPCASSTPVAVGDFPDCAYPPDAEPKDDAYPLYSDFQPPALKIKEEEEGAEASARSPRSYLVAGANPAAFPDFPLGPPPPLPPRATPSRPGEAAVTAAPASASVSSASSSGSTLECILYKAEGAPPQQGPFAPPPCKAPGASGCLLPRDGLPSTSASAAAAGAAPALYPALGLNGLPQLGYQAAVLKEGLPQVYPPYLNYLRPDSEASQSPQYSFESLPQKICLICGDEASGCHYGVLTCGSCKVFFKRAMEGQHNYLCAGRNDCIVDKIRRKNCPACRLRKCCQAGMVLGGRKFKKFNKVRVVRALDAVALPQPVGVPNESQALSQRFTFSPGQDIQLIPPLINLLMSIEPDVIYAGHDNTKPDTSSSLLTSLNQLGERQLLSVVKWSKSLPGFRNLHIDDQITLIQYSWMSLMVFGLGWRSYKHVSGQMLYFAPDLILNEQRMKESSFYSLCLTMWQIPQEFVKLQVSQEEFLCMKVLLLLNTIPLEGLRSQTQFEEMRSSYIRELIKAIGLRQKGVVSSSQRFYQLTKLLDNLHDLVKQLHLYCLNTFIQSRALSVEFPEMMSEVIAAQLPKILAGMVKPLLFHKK
It is filed as functional.

As a reminder, the AC50 is the concentration giving half of the maximal activity seen. High values mean activity only at high concentration, low ones activity at low concentration.
Also: assay procedure not described here.

Chain of 3',5'-cyclic-AMP phosphodiesterase 4D (Q08499 whole entry): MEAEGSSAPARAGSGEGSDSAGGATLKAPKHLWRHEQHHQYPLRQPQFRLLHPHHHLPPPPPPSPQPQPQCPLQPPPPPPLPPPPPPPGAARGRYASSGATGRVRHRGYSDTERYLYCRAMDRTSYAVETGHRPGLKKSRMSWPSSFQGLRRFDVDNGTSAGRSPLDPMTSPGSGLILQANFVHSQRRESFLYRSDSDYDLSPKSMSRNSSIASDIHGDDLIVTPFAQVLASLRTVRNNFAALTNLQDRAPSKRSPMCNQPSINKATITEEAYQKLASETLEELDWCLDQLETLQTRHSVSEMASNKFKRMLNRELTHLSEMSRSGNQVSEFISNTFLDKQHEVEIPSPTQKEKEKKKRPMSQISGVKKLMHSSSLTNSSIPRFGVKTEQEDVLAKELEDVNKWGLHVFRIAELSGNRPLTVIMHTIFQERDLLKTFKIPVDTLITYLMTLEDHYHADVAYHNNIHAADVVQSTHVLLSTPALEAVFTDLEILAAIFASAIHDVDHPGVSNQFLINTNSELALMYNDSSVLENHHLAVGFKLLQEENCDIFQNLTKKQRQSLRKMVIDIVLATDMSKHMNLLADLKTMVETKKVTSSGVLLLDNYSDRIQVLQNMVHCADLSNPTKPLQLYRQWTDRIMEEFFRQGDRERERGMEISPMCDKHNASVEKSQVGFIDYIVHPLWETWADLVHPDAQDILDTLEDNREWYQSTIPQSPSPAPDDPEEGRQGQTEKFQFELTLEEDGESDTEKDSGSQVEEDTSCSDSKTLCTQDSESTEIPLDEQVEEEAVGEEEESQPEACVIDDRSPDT
Chain of Gamma-aminobutyric acid receptor subunit alpha-1 (P62813 whole entry): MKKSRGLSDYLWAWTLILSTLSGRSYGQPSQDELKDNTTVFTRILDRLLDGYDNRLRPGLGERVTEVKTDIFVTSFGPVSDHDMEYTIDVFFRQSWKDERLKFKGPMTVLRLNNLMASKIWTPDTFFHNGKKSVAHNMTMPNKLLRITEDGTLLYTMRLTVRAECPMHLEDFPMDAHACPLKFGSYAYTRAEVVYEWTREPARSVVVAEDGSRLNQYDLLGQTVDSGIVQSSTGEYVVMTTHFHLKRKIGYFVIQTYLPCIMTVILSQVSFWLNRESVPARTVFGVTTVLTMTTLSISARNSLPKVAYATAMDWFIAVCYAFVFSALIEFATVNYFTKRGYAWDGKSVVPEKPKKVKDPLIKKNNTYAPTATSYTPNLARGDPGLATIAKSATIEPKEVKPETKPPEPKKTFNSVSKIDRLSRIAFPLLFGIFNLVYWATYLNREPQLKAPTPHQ
Chain of Histamine H2 receptor (P25021 whole entry): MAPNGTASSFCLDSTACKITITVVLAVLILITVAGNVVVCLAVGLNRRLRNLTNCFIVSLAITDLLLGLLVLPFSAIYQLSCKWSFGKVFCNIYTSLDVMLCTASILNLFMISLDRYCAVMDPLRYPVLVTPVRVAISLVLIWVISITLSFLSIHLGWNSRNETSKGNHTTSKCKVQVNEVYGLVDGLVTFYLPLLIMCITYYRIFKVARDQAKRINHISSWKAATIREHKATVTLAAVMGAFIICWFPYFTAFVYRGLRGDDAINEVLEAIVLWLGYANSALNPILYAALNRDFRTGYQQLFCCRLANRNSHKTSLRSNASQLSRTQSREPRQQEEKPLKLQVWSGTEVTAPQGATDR
Chain of Cannabinoid receptor 1 (P21554 whole entry): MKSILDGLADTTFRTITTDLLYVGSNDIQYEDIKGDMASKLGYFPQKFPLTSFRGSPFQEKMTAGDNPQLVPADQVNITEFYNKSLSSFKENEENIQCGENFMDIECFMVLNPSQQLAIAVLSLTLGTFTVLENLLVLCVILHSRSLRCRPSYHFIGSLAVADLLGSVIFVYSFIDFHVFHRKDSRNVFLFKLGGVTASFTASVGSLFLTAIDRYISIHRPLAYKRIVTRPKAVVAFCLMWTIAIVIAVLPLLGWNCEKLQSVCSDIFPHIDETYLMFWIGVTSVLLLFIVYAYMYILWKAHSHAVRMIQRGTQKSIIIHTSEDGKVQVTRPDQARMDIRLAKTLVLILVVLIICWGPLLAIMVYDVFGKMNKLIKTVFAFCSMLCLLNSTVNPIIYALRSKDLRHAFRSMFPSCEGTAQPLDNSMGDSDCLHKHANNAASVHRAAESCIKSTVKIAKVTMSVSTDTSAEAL
Chain of Sodium-dependent serotonin transporter (P31645 whole entry): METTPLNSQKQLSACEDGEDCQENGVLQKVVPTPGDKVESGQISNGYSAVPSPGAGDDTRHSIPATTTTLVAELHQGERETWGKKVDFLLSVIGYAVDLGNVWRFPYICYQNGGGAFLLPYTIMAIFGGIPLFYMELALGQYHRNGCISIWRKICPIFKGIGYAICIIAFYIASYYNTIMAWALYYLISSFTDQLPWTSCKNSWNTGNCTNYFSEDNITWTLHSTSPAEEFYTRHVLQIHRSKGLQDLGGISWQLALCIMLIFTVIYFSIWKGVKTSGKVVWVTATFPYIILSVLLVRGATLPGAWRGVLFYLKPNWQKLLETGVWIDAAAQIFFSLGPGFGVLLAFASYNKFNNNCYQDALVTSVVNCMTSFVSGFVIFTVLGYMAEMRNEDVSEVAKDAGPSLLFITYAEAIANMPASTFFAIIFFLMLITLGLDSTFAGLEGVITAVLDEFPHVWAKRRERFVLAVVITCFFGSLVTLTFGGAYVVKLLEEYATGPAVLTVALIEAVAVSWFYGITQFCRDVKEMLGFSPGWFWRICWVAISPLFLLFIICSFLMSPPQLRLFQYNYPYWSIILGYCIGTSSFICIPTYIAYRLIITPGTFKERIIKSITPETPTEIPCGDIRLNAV
Chain of D(1A) dopamine receptor (P21728 whole entry): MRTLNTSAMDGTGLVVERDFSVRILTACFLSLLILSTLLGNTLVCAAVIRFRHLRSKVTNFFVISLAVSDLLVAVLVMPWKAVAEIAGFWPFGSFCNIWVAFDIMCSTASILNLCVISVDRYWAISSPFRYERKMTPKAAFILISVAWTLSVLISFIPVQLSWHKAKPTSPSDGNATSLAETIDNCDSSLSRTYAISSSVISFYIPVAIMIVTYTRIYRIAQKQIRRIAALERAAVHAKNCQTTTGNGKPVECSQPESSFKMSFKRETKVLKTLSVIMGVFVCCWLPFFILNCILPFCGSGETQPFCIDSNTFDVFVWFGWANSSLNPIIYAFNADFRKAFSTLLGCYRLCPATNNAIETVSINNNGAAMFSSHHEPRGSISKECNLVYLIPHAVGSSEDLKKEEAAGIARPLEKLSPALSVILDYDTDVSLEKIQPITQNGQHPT
Chain of 5-hydroxytryptamine receptor 2B (P41595 whole entry): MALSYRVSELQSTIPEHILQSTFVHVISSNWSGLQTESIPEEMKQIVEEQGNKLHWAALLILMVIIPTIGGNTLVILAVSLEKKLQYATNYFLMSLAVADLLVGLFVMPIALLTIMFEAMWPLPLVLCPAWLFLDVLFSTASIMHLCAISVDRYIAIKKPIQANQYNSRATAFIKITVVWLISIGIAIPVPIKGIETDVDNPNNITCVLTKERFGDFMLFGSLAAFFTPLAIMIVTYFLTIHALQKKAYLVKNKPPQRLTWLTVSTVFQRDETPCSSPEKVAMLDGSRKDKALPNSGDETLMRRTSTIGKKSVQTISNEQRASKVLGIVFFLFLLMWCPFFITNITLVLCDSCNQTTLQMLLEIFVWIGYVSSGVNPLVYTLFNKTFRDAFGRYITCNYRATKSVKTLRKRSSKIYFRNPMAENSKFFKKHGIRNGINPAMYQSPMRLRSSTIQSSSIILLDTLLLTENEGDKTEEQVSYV
Chain of Vasopressin V1a receptor (P37288 whole entry): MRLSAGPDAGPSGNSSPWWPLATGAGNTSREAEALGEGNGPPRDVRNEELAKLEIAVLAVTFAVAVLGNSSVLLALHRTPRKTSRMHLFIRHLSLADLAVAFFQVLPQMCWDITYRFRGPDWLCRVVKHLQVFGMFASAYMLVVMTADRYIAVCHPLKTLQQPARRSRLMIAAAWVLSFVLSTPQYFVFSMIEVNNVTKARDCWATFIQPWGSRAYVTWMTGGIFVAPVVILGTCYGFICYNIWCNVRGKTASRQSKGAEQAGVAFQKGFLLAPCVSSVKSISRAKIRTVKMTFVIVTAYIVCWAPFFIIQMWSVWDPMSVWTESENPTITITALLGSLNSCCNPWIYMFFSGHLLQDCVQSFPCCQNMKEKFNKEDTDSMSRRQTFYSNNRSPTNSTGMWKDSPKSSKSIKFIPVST
Chain of Vasopressin V2 receptor (P30518 whole entry): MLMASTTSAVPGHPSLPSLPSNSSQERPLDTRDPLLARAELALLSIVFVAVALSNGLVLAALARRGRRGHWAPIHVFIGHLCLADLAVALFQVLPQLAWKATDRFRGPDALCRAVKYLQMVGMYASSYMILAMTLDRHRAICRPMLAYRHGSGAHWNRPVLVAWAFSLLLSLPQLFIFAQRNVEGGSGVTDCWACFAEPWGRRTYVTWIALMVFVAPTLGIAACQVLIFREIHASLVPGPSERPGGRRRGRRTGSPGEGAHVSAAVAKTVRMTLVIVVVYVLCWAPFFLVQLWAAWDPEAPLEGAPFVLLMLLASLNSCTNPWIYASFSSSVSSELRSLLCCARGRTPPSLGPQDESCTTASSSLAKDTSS

Take `O=C(O)c1cccc(-c2noc(-c3ccccc3F)n2)c1`: the AC50 in [1] is > 10 µM; in test [2] it was > 30 µM; on Thromboxane A2 receptor, > 30 µM; in test [3] it was > 30 µM; in test [4], > 10 µM.

As for `CO/N=C(\C(=O)N[C@@H]1C(=O)N2C(C(=O)OCOC(=O)C(C)(C)C)=C(C)CS[C@H]12)c1csc(N)n1`, the concentration at half-maximal activity (AC50) (in test [5]; in test [2]; at D(1A) dopamine receptor; in [6]; at Cannabinoid receptor 1; on Histamine H2 receptor) was > 30 µM throughout.

With `COCC1=C(C(=O)OC(C)OC(=O)OC(C)C)N2C(=O)[C@@H](NC(=O)/C(=N\OC)c3csc(N)n3)[C@H]2SC1` (stereo partly drawn) [CEFPODOXIME PROXETIL], the AC50 in [5] is > 30 µM; in test [1] it was > 30 µM; in test [2] it was 29 µM; at D(1A) dopamine receptor, > 30 µM; in test [6], > 30 µM; on Cannabinoid receptor 1, > 30 µM. Besides, the AC50 (in test [4]; on Histamine H2 receptor) was > 30 µM throughout.

As for `NS(=O)(=O)c1cc2c(cc1Cl)NC(CC1CCCC1)NS2(=O)=O` (stereo not drawn) [CYCLOPENTHIAZIDE], the AC50 (in test [5]; in test [2]; at D(1A) dopamine receptor; in test [6]; at Cannabinoid receptor 1; at Histamine H2 receptor) was > 30 µM in each case.

With `O=C(Nc1ccccc1)OCC(CN1CCCCC1)OC(=O)Nc1ccccc1` (stereo not drawn) [DIPERODON], the AC50 in test [5] was > 10 µM; in test [1], > 30 µM; in [2] it was > 10 µM; on Vasopressin V2 receptor, > 30 µM; at Thromboxane A2 receptor, > 30 µM; at Vasopressin V1a receptor it was > 10 µM. The concentration at half-maximal activity (AC50) in test [6] was > 10 µM; at Cannabinoid receptor 1, > 30 µM; in test [3] it was > 30 µM; in test [4], > 30 µM; in [7], > 10 µM; at Histamine H2 receptor it was > 10 µM.

`CC1=NN(c2ccccc2)C(=O)C1` [EDARAVONE]: at D(1A) dopamine receptor, the AC50 is > 30 µM.

Turning to `N/N=c1/cc2c(n[nH]1)CCN(C(=O)c1ccccc1)C2` [ENDRALAZINE], the AC50 (in [5]; in [2]; on D(1A) dopamine receptor; in test [6]; at Cannabinoid receptor 1; at Histamine H2 receptor) was > 30 µM in each case.

Take `CC(C)=CCC1C(=O)N(c2ccccc2)N(c2ccccc2)C1=O` [FEPRAZONE]: at D(1A) dopamine receptor, the AC50 was > 30 µM.

For the compound `CS(=O)(=O)Nc1cc2occ(NC=O)c(=O)c2cc1Oc1ccccc1` [IGURATIMOD], the AC50 is 9.8 µM in test [2]; > 30 µM in test [6]; > 30 µM at Progesterone receptor; > 30 µM in test [3]; > 30 µM in test [7].

Turning to `CN1C(=O)N(C)C2C1N(C)C(=O)N2C` (stereo not drawn) [MEBICAR], the half-maximal activity concentration (AC50) (in [5]; in test [1]; in test [2]; at D(1A) dopamine receptor; on Cannabinoid receptor 1; in [4]) was > 30 µM each time. Moreover, the AC50 at Histamine H2 receptor was > 30 µM.

Take `Cn1cc[nH]c1=S` [METHIMAZOLE]: the AC50 on D(1A) dopamine receptor was > 30 µM.

In [3], `COc1ccc2c(c1)OC(C)(C)C(c1ccccc1)C2c1ccc(OCCN2CCCC2)cc1` (stereo not drawn) [ORMELOXIFENE] yielded an AC50 of 10.5 µM.

With `Nc1ccc(/N=N/c2ccccc2)c(N)n1` [PHENAZOPYRIDINE], the AC50 in test [5] was > 30 µM; in test [1], > 30 µM; in test [2] it was 14 µM; on D(1A) dopamine receptor it was > 30 µM; in test [6] it was > 30 µM; at Cannabinoid receptor 1, > 30 µM. The AC50 (in test [4]; at Histamine H2 receptor) was > 30 µM throughout.

In the case of `CC[C@@H]1/C=C(\C)C[C@H](C)C[C@H](OC)[C@H]2O[C@@](O)(C(=O)C(=O)N3CCCC[C@H]3C(=O)O[C@H](/C(C)=C/[C@@H]3CC[C@H](Cl)[C@H](OC)C3)[C@H](C)[C@@H](O)CC1=O)[C@H](C)C[C@@H]2OC` [PIMECROLIMUS], the AC50 in test [3] was > 30 µM.

Regarding `CC(C(=O)O)c1ccc2c(c1)Cc1cccnc1O2` (stereo not drawn) [PRANOPROFEN], the concentration at half-maximal activity (AC50) in test [3] was > 30 µM.

Regarding `O=C(O)CCn1c2c(c3ccccc31)C[C@H](NS(=O)(=O)c1ccc(F)cc1)CC2` [RAMATROBAN], the AC50 was > 10 µM in [5]; > 10 µM in test [1]; > 30 µM in [2]; > 30 µM at Vasopressin V2 receptor; 0.0311 µM on Thromboxane A2 receptor; > 30 µM on Vasopressin V1a receptor. The half-maximal activity concentration (AC50) in [6] is > 10 µM; on Progesterone receptor, > 30 µM; in test [3], > 30 µM; in test [4], > 10 µM; in test [7], > 30 µM; at Histamine H2 receptor, > 30 µM.

The compound `CCO[C@@H](Cc1ccc(OCCn2c(C)ccc2-c2ccc(SC)cc2)cc1)C(=O)O` [SAROGLITAZAR] displayed a concentration at half-maximal activity (AC50) in test [3] of 18.7 µM.

With `CN1CCC2=C(C1)c1ccccc1Cc1ccccc12` [SETIPTILINE], the concentration at half-maximal activity (AC50) in test [3] was > 30 µM.

For the compound `COc1ccc(CCC(C)NCC(O)c2ccc(O)c([S+](C)[O-])c2)cc1` (stereo not drawn) [SULFINALOL], the AC50 in test [3] was > 30 µM.

With `CCC1C(C)=NN=C(c2ccc(OC)c(OC)c2)c2cc(OC)c(OC)cc21` (stereo not drawn) [TOFISOPAM], the AC50 in [3] is > 30 µM.

`COc1cc(NCc2ccc3nc(N)nc(N)c3c2C)cc(OC)c1OC` [TRIMETREXATE]: in [3], the AC50 was > 30 µM.

As for `C[C@@H]1O[C@@H](OC[C@H]2O[C@@H](Oc3c(-c4ccc(OCCO)c(OCCO)c4)oc4cc(OCCO)cc(O)c4c3=O)[C@H](O)[C@@H](O)[C@@H]2O)[C@H](O)[C@H](O)[C@H]1O` [TROXERUTIN], the AC50 in test [3] was > 30 µM.

Consider `COc1cc2c(cc1OC)[C@H]1C[C@@H](OC(=O)[C@@H](N)C(C)C)[C@H](CC(C)C)CN1CC2` [VALBENAZINE], for which, in test [3], the concentration at half-maximal activity (AC50) is > 30 µM.
